For assay [1], the target named is human GLP-1 receptor (GLP-1R) (Homo sapiens, UniProt P43220). In words: cAMP pharmacological functional assay in presence of casein, hGLP-1R. Conditions: HEK293 cells expressing hGLP-1R, 0.1% Casein, geometric mean; read-out: hGLP1R cAMP Rel EC50 nM (SEM, n). Format: cell-based.
Assay [2] has as its target T1, gastric inhibitory peptide receptor (GIPR) (Homo sapiens, UniProt P48546).
T1 sequence (P48546 22-466): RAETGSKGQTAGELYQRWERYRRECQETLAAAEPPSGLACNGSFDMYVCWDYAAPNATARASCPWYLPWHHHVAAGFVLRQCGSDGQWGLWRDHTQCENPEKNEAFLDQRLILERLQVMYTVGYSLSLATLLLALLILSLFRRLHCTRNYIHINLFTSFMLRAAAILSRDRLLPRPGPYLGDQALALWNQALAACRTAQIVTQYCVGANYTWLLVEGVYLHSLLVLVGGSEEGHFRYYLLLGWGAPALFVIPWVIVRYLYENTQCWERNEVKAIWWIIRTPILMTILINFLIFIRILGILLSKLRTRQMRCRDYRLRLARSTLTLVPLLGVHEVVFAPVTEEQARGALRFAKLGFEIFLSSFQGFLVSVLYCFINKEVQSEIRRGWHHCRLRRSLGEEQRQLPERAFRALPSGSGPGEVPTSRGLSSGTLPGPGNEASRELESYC
The assay is described as follows: cAMP pharmacological functional assay in presence of casein, hGIPR. It is filed as cell-based. Conditions: HEK293 cells expressing hGIPR, 0.1% Casein, geometric mean; read-out: hGIPR cAMP Rel EC50 nM (SEM, n).

Numbered stars: 1 amine (or outer) side, 2 acyl side, 3 side chain; on linkers, the order of the positions; unused ones are H or OH. Square brackets hold non-standard residues; d marks the D form. Side chains are listed from the residue outwards. Peptide text beside a SMILES is read from it. * marks the point of attachment. C20 diacid = O=C(O)CCCCCCCCCCCCCCCCCCC(=O)*; C18 diacid = O=C(O)CCCCCCCCCCCCCCCCC(=O)*; αMePhe(2-F) = C[C@](N)(Cc1ccccc1F)C(=O)O; γGlu = O=C(O)[C@H](CCC(=O)[*:2])N[*:1]; Desaminohistidyl = O=C(CCc1c[nH]cn1)*; 3Pal = N[C@@H](Cc1cccnc1)C(=O)O; αMeL = CC(C)C[C@](C)(N)C(=O)O; αMeP = C[C@@]1(C(=O)O)CCCN1; AEEA = NCCOCCOCC(=O)O; Aib = CC(C)(N)C(=O)O

As a reminder, the EC50 is the concentration at which the effect is half-maximal.

Sequence of human GLP-1 receptor (GLP-1R) (P43220 24-463): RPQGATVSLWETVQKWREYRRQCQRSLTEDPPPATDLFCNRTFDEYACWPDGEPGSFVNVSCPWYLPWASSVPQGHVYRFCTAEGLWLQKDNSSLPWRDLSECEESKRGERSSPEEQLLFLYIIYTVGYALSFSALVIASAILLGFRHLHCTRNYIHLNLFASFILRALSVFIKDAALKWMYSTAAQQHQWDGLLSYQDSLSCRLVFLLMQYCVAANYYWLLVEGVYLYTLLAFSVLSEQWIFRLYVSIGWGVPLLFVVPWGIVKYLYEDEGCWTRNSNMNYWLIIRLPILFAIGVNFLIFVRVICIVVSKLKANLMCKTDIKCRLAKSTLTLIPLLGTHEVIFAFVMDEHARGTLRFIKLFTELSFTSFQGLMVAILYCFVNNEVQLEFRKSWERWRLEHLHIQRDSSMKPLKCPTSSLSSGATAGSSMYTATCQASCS

As to `CC[C@H](C)[C@H](NC(=O)[C@H](CC(C)C)NC(=O)[C@H](Cc1ccc(O)cc1)NC(=O)[C@H](CCC(=O)O)NC(=O)[C@@H](NC(=O)[C@H](Cc1ccccc1)NC(=O)[C@H](C)NC(=O)[C@H](CCCCN)NC(=O)[C@H](CCC(N)=O)NC(=O)[C@H](C)NC(=O)[C@H](CCCCNC(=O)COCCOCCNC(=O)COCCOCCNC(=O)CC[C@H](NC(=O)CCCCCCCCCCCCCCCCCCC(=O)O)C(=O)O)NC(=O)[C@H](CCC(=O)O)NC(=O)[C@H](CC(=O)O)NC(=O)[C@H](CC(C)C)NC(=O)[C@H](CC(C)C)NC(=O)[C@@H](NC(=O)[C@H](CO)NC(=O)[C@H](Cc1ccc(O)cc1)NC(=O)[C@H](CC(=O)O)NC(=O)[C@H](CO)NC(=O)[C@@H](NC(=O)[C@H](Cc1ccccc1)NC(=O)[C@@H](NC(=O)CNC(=O)[C@H](CCC(=O)O)NC(=O)C(C)(C)NC(=O)[C@@H](N)Cc1ccc(O)cc1)[C@@H](C)O)[C@@H](C)O)[C@@H](C)CC)[C@@H](C)CC)C(=O)N[C@@H](CCC(=O)O)C(=O)NCC(=O)NCC(=O)N1CCC[C@H]1C(=O)N[C@@H](CO)C(=O)N[C@@H](CO)C(=O)NCC(=O)N[C@@H](C)C(=O)N1CCC[C@H]1C(=O)N1CCC[C@H]1C(=O)N1CCC[C@H]1C(=O)N[C@@H](CO)C(N)=O` [Example 258] (H-Y[Aib]EGTFTSDYSILLDEK([AEEA-AEEA-γGlu-C20 diacid])AQKAFIEYLIEGGPSSGAPPPS-NH2; N-terminus assumed), the EC50 in assay [1] was determined as 0.174 nM; in assay [2], 2.43 nM.

With `CC[C@H](C)[C@H](NC(=O)[C@H](CC(C)C)NC(=O)[C@H](Cc1ccc(O)cc1)NC(=O)[C@@H](CCC(=O)O)NC(=O)[C@@H](NC(=O)[C@H](Cc1ccccc1)NC(=O)[C@H](CCC(=O)O)NC(=O)C(C)(C)NC(=O)[C@H](CCC(N)=O)NC(=O)[C@H](C)NC(=O)[C@H](CCCCNC(=O)COCCOCCNC(=O)COCCOCCNC(=O)CC[C@H](NC(=O)CCCCCCCCCCCCCCCCCCC(=O)O)C(=O)O)NC(=O)[C@H](CCC(=O)O)NC(=O)[C@H](CC(=O)O)NC(=O)[C@H](CC(C)C)NC(=O)[C@](C)(CC(C)C)NC(=O)[C@@H](NC(=O)[C@H](CO)NC(=O)[C@H](Cc1cccnc1)NC(=O)[C@H](CC(=O)O)NC(=O)[C@H](CO)NC(=O)[C@@H](NC(=O)[C@](C)(Cc1ccccc1F)NC(=O)[C@@H](NC(=O)CNC(=O)[C@H](CCC(=O)O)NC(=O)C(C)(C)NC(=O)[C@@H](N)Cc1c[nH]cn1)[C@@H](C)O)[C@@H](C)O)[C@@H](C)CC)[C@@H](C)CC)C(=O)N[C@@H](CCC(=O)O)C(=O)NCC(=O)NCC(=O)N1CCC[C@H]1C(=O)N[C@@H](CO)C(=O)N[C@@H](CO)C(=O)NCC(=O)N[C@@H](C)C(=O)N1CCC[C@H]1C(=O)N1CCC[C@H]1C(=O)N1CCC[C@H]1C(=O)N[C@@H](CO)C(N)=O` [Example 190] (H-H[Aib]EGT[αMePhe(2-F)]TSD[3Pal]SI[αMeL]LDEK([AEEA-AEEA-γGlu-C20 diacid])AQ[Aib]EFI[dE]YLIEGGPSSGAPPPS-NH2), the EC50 in assay [1] is 0.0241 nM; in assay [2], 0.738 nM.

For `CC[C@H](C)[C@H](NC(=O)[C@H](CC(C)C)NC(=O)[C@H](Cc1ccc(O)cc1)NC(=O)[C@@H](CCC(=O)O)NC(=O)[C@@H](NC(=O)[C@H](Cc1ccccc1)NC(=O)[C@@H](NC(=O)C(C)(C)NC(=O)[C@H](CCC(N)=O)NC(=O)[C@H](C)NC(=O)[C@H](CCCCNC(=O)COCCOCCNC(=O)COCCOCCNC(=O)[C@@H](N)CCCCNC(=O)CCCCCCCCCCCCCCCCC(=O)O)NC(=O)[C@H](CCC(=O)O)NC(=O)[C@H](CC(=O)O)NC(=O)[C@H](CC(C)C)NC(=O)C(C)(CC(C)C)NC(=O)[C@@H](NC(=O)[C@H](CO)NC(=O)[C@H](Cc1c[nH]cn1)NC(=O)[C@H](CC(=O)O)NC(=O)[C@H](CO)NC(=O)[C@@H](NC(=O)C(C)(Cc1ccccc1F)NC(=O)[C@@H](NC(=O)CNC(=O)[C@H](CCC(=O)O)NC(=O)C(C)(C)NC(=O)[C@@H](N)Cc1ccc(O)cc1)[C@@H](C)O)[C@@H](C)O)[C@@H](C)CC)[C@@H](C)O)[C@@H](C)CC)C(=O)N[C@@H](CCC(=O)O)C(=O)NCC(=O)NCC(=O)N1CCC[C@H]1C(=O)N[C@@H](CO)C(=O)N[C@@H](CO)C(=O)NCC(=O)N[C@@H](C)C(=O)N1CCC[C@H]1C(=O)N1CCC[C@H]1C(=O)N1CCC[C@H]1C(=O)N[C@@H](CO)C(N)=O` (stereo partly shown) [Example 176], the EC50 in assay [1] was determined as 1.07 nM; in assay [2] it was 0.523 nM.

For the molecule `CC[C@H](C)[C@H](NC(=O)[C@H](CC(C)C)NC(=O)[C@H](Cc1ccc(O)cc1)NC(=O)[C@H](CCC(=O)O)NC(=O)[C@@H](NC(=O)[C@H](Cc1ccccc1)NC(=O)[C@H](C)NC(=O)[C@H](CCC(N)=O)NC(=O)[C@H](CCC(N)=O)NC(=O)[C@H](C)NC(=O)[C@H](CCCCNC(=O)COCCOCCNC(=O)COCCOCCNC(=O)CC[C@H](NC(=O)CCCCCCCCCCCCCCCCCCC(=O)O)C(=O)O)NC(=O)[C@H](CCC(=O)O)NC(=O)[C@H](CC(=O)O)NC(=O)[C@H](CC(C)C)NC(=O)[C@H](CC(C)C)NC(=O)[C@@H](NC(=O)[C@H](CO)NC(=O)[C@H](Cc1ccc(O)cc1)NC(=O)[C@H](CC(=O)O)NC(=O)[C@H](CO)NC(=O)[C@@H](NC(=O)[C@H](Cc1ccccc1)NC(=O)[C@@H](NC(=O)CNC(=O)[C@H](CCC(=O)O)NC(=O)[C@]1(C)CCCN1C(=O)CCc1c[nH]cn1)[C@@H](C)O)[C@@H](C)O)[C@@H](C)CC)[C@@H](C)CC)C(=O)N[C@@H](CCC(=O)O)C(=O)NCC(=O)NCC(=O)N1CCC[C@H]1C(=O)N[C@@H](CO)C(=O)N[C@@H](CO)C(=O)NCC(=O)N[C@@H](C)C(=O)N1CCC[C@H]1C(=O)N1CCC[C@H]1C(=O)N1CCC[C@H]1C(=O)N[C@@H](CO)C(N)=O` [Example 201] (Desaminohistidyl-[αMeP]EGTFTSDYSILLDEK([AEEA-AEEA-γGlu-C20 diacid])AQQAFIEYLIEGGPSSGAPPPS-NH2), the EC50 in assay [1] is 0.0385 nM; in assay [2], above 30 nM.

`CC[C@H](C)[C@H](NC(=O)[C@H](CC(C)C)NC(=O)[C@H](Cc1ccc(O)cc1)NC(=O)[C@@H](CCC(=O)O)NC(=O)[C@@H](NC(=O)[C@H](Cc1ccccc1)NC(=O)[C@H](Cc1c[nH]cn1)NC(=O)C(C)(C)NC(=O)[C@H](CCC(N)=O)NC(=O)[C@H](C)NC(=O)[C@H](CCCCNC(=O)COCCOCCNC(=O)COCCOCCNC(=O)CC[C@H](NC(=O)CCCCCCCCCCCCCCCCC(=O)O)C(=O)O)NC(=O)[C@H](CCC(=O)O)NC(=O)[C@H](CC(=O)O)NC(=O)[C@H](CC(C)C)NC(=O)[C@](C)(CC(C)C)NC(=O)[C@@H](NC(=O)[C@H](CO)NC(=O)[C@H](Cc1c[nH]cn1)NC(=O)[C@H](CC(=O)O)NC(=O)[C@H](CO)NC(=O)[C@@H](NC(=O)[C@](C)(Cc1ccccc1F)NC(=O)[C@@H](NC(=O)CNC(=O)[C@H](CCC(=O)O)NC(=O)C(C)(C)NC(=O)[C@@H](N)Cc1ccc(O)cc1)[C@@H](C)O)[C@@H](C)O)[C@@H](C)CC)[C@@H](C)CC)C(=O)N[C@@H](CCC(=O)O)C(=O)NCC(=O)NCC(N)=O` [Example 180] (H-Y[Aib]EGT[αMePhe(2-F)]TSDHSI[αMeL]LDEK([AEEA-AEEA-γGlu-C18 diacid])AQ[Aib]HFI[dE]YLIEGG-NH2): in assay [1], the EC50 turned out to be 2.16 nM.

With `CC[C@H](C)[C@H](NC(=O)[C@H](CC(C)C)NC(=O)[C@H](Cc1ccc(O)cc1)NC(=O)[C@@H](CCC(=O)O)NC(=O)[C@@H](NC(=O)[C@H](Cc1ccccc1)NC(=O)[C@H](CCC(=O)O)NC(=O)C(C)(C)NC(=O)[C@H](CCC(N)=O)NC(=O)[C@H](C)NC(=O)[C@H](CCCCNC(=O)COCCOCCNC(=O)COCCOCCNC(=O)CC[C@H](NC(=O)CCCCCCCCCCCCCCCCCCC(=O)O)C(=O)O)NC(=O)[C@H](CCC(=O)O)NC(=O)[C@H](CC(=O)O)NC(=O)[C@H](CC(C)C)NC(=O)[C@](C)(CC(C)C)NC(=O)[C@@H](NC(=O)[C@H](CO)NC(=O)[C@@H](Cc1ccc(O)cc1)NC(=O)[C@H](CC(=O)O)NC(=O)[C@H](CO)NC(=O)[C@@H](NC(=O)[C@](C)(Cc1ccccc1F)NC(=O)[C@@H](NC(=O)CNC(=O)[C@H](CCC(=O)O)NC(=O)C(C)(C)NC(=O)[C@@H](N)Cc1ccc(O)cc1)[C@@H](C)O)[C@@H](C)O)[C@@H](C)CC)[C@@H](C)CC)C(=O)N[C@@H](CCC(=O)O)C(=O)NCC(=O)NCC(=O)N1CCC[C@H]1C(=O)N[C@@H](CO)C(=O)N[C@@H](CO)C(=O)NCC(=O)N[C@@H](C)C(=O)N1CCC[C@H]1C(=O)N1CCC[C@H]1C(=O)N1CCC[C@H]1C(=O)N[C@@H](CO)C(N)=O` [Example 184] (H-Y[Aib]EGT[αMePhe(2-F)]TSD[dY]SI[αMeL]LDEK([AEEA-AEEA-γGlu-C20 diacid])AQ[Aib]EFI[dE]YLIEGGPSSGAPPPS-NH2), in assay [2], the EC50 is 0.0477 nM.

The values are drawn from patent US12252524B2, “GIP/GLP1 co-agonist compounds” (Eli Lilly and Company, priority 2018, dated 2025).
